Laboratory results as given in patent US12221494B2, “Short synthetic peptides and their uses for treating retinal degenerative diseases and/or tissue injuries” (MacKay Memorial Hospital, priority 2019, dated 2025).
Ends that are not written are not given here.

Key:
STAT3 = assay: Western blot of STAT3 phosphorylation in C2C12 cells; type: cell-based, mouse; settings: C2C12 myoblast cells, 5 to 20 min after stimulation
Description: Cell lysis, fractionation, and SDS-PAGE were conducted in accordance with procedures described previously (Yang Y C et al., BMC Cancer 2007; 7:216). Antibodies used in this study were for Phospho-Stat3 and STAT3 (1:1000-fold dilution). Proteins of interest were detected using the appropriate IgG-HRP secondary antibody (Santa Cruz Biotechnology) and ECL reagent (Amersham Biosciences).

Neuro-2a cells = assay: Glutamate-induced Neuro-2a cell death (LDH release); type: cell-based, mouse; settings: glutamate-induced cell death
Description: Neuro-2a cells were seeded in 48-well culture plates (1.5×10^5 cells/well) for 24 h, and then cultured in 0.5 ml fresh 2% FBS-DMEM medium containing 20 μM of the present peptide (7 μg of 6-mer in 0.5 ml medium) for further 4 h. Subsequently, 100 mM glutamate (from 1 M stock and PBS as solvent) was added to cells for further 6 h. Glutamate-induced cell death was quantitatively assessed by measuring lactate dehydrogenase (LDH) activity released into the culture medium by damaged cells. LDH activity was measured using PicoProbe™ LDH-Cytotoxicity Fluorometric Assay Kit (Catalog #K314-500; BioVision) according to the instruction manuals. LDH activity was estimated using an automated microplate reader (UVmax; Molecular Devices, San Francisco, CA) by measuring the fluorescent product (Ex/Em=535/587 nm).
Briefly, cells were pretreated with the designated peptide (i.e., any of SEQ ID NOs: 2 to 11) for 4 h and then treated with 100 mM glutamate for 6 h. The cell death was detected by a commercial lactate dehydrogenase (LDH) Cytotoxicity Assay Kit. Results are depicted in FIG. 1.

survivin mRNA = assay: Real-time qPCR of survivin mRNA in C2C12 cells; type: cell-based, mouse; settings: C2C12 cells in low serum media, 20 μM peptide, 6 h
Description: (§1) Total RNA was extracted from cells using TRIzol (Invitrogen). Synthesis of cDNA was performed with 1 μg of total RNA at 50° C. for 50 min using oligo(dT) primers and reverse transcriptase (Superscript III; Invitrogen). Briefly, quantification of cDNA was performed in the LightCycler (Roche, Mannheim, Germany) using the DNA Master SYBR Green I kit (Roche) with the following cycling conditions: initial denaturation at 95° C. for 10 min, followed by 40 cycles at 95° C. for 10 s, 60° C. for 10 s, and 72° C. for 10 s and a 5-min terminal incubation at 72° C. The data were calculated with AACt. The expression was then normalized against the expression of glyceraldehyde-3-phosphate dehydrogenase (GAPDH). The PCR primers were mouse Survivin sense, 5′-[…]-3′ (SEQ ID NO: 27), anti-sense, 5′-[…]-3′ (SEQ ID NO: 28) (accession number: NM_001012273.1; PCR product: 136 bp); mouse GAPDH sense, 5′-[…]-3′ (SEQ ID NO: 29), anti-sense, 5′-[…]-3′ (SEQ ID NO: 30) (NM_001289726.1; 149 bp). For analysis rabbit inflammatory gene expression, The PCR primers were rabbit TNF-αsense, 5′-[…]-3′ (SEQ ID NO: 31), anti-sense, 5′-[…]-3′ (SEQ ID NO: 32) (accession number: NM 001082263.1); rabbit IL-1βsense, 5′-[…]-3′(SEQ ID NO: 33), anti-sense, 5′-[…]-3′ (SEQ ID NO: 34) (NM 001082201.1); rabbit GAPDH sense, 5′-[…]-3′ (SEQ ID NO: 35), anti-sense, 5′-[…]-3′ (SEQ ID NO: 36) (accession number:NM 001082253.1). The cycle threshold (Ct) values of the PCR product and a GAPDH (Glyceraldehyde 3-phosphate dehydrogenase) control mRNA were used to calculate relative quantities of mRNA.
Similar to the approach in Example 1.2.1, the expression level of survivin mRNA in C2C12 cells was used as an indicator for the function of the 6-mer variants in Tables 3 to 5. Briefly, C2C12 cells in low serum media were treated with 20 μM the 6-mer variants for 6 h. […] The results also confirmed that alanine substation at the glutamic acid (E) residues would severely impair the 6-mer activity.

[1] = tested on: Sprague-Dawley rats, retinal ischemia/reperfusion (I/R) injury; assay: TUNEL staining of I/R-injured rat retina (20 h); type: in vivo; settings: for Number of TUNEL-positive cells in retina: subconjunctival injection 1 mM 4 h before I/R, 20 hours after I/R injury, Vehicle + I/R 27.2 ± 2.7; for I/R-induced retinal cell apoptosis (TUNEL staining), in words: subconjunctival injection prior to I/R, 20 h reperfusion
Description: Experimental procedures were approved by the Mackay Memorial Hospital Review Board (Taiwan, R.O.C.). All surgeries were performed under aseptic conditions. Adult 10-week-old male Sprague-Dawley rats (initial body weight=312±11 g) were anesthetized by an intraperitoneal injection of xylazine (10 mg/kg). Peptide was dissolved in 0.85% normal saline to 1 mM and delivered by the subconjunctival injection of 100 μL peptide through a 31-Gneedle with a micro-syringe before the induction of I/R. Normal saline was as a vehicle control. Rat I/R was performed after peptide or vehicle injection for 4 h. Pupils were dilated with 0.5% tropicamide and 0.5% phenylephrine. Body temperature was maintained at 37° C. using a heating blanket After dilation of the pupil, the anterior chamber of the right eye was cannulated with a 27-gauge needle connected to a physiological saline reservoir. The intraocular pressure (IOP) was raised to 110 mmHg by keeping the reservoir at 150 cm above the eye, and retinal ischemia was confirmed by observing whitening of the iris and the loss of the red reflex of the retina. After 90 min of ischemia, the cannulating needle was withdrawn and the IOP was returned to normal pressure, resulting in recovery of the blood supply from the retinal artery and reperfusion injury induced. The reperfusion was evident by the return of the red reflex. Corneal analgesia was achieved using 1 or 2 drops of 0.4% oxybuprocaine hydrochloride, and Ofloxacin ophthalmic gel (0.3%) was applied topically to the eye before and after the procedure. Only the right eye was used in all experiments. A sham procedure was performed at left eye served as an intra-animal control.
After I/R for 20 h, rats (n=6 in each group) were euthanized by an overdose of pentobarbital. Enucleated eyeballs were fixed in 4% PFA for 24 h at 4° C. Fixed retinal tissues were embedded in paraffin. To identify apoptosis of retinal cells, 5 μm sections thick cut through the optic disc, de-paraffinized, rehydrated, incubatedwith 20 μg/mL proteinase K for 10 min, and immunofluorescence staining of apoptotic cells was performed using a terminal deoxynucleotidyl transferase(TdT)-mediated dUTP nick-end labeling (TUNEL)-based kit (Roche Molecular Biochemicals, Indianapolis, IN) according to the manufacturer's instructions. Nuclei were located by counterstaining with Hoechst 33258 for 7 min Sections were observed under an epifluorescence microscope (Zeiss Axioplan 2 imaging; Zeiss, Oberkochen, Germany) equipped with a charge-coupled device (CCD) camera (Zeiss AxioCam HRm, Zeiss) (×400, 6 fields/sample), and quantification was performed using Axiovert software (Zeiss AxioVision Release 4.8.2, Zeiss). Three sections per eye were averaged and the mean of six eyes was recorded as the representative value for each group.
In this example, the neuroprotective effect of the 6-mer variant peptides on neural retina cells and retinal capillary system was investigated using a rat model of I/R injury described in the “Material and Methods” section. Briefly, 6-mer variant peptide (1 mM, 120 μl) was injected into the subconjunctival space of Sprague-Dawley rats for 4 h before the induction of I/R. Then, I/R injury was induced in rat retinas by increasing the intraocular pressure (IOP) in the eye to 110 mmHg for 90 min, followed by 20 h of reperfusion. Subsequently, the level of retinal cell apoptosis was evaluated using TUNEL staining. In addition, the retinal morphology was analyzed with H&E staining 14 days after the I/R injury. Results are summarized in FIGS. 6 to 10, and Tables 6 to 9.

TNF-α mRNA = assay: Hyperosmotic stress-induced TNF-α gene expression in rabbit corneal epithelial cells (qPCR); type: cell-based; settings: 20 μM peptide 6 h, then hyperosmotic medium (463 mOsM) 3 h, solvent 12.8-fold
Description: as §1
(§2) Limbal stem epithelial cells (LSEC) were isolated from 6-month-old New Zealand white rabbits and continuously cultivated for 14 days byDMEM/F-12basalmedium based cell-suspension culture to achieve corneal-liked epithelial cell differentiation as previously described (Ho et al., Stem Cells. 2013; 31:1775). […] After 3 h, quantitative real-time PCR was used to estimate HOP-induced Tumor necrosis factor (TNF)-α and nterleukin-1 beta (IL-1β) expressions. […]

IL-1β mRNA = assay: Hyperosmotic stress-induced IL-1β gene expression in rabbit corneal epithelial cells (qPCR); type: cell-based; settings: 20 μM peptide 6 h, then hyperosmotic medium (463 mOsM) 3 h, solvent 4.5-fold
Description: as §1, §2

[2] = tested on: C57BL/6 mice, dry eye induced in controlled environment chamber (CEC); assay: Dry eye animal model, corneal fluorescein staining; type: in vivo, mouse; settings: mice 14 days in CEC, then treatment for 4 days
Description: Dry eyes were induced by placing mice in a controlled environment chamber (CEC) for 14 days in accordance with procedures previously described by Barabino et al (IVOS (2005) 46(8), 2766-2771). Mice placed in the CEC were exposed to a condition, in which relative humidity (RH) was maintained at <25%, temperature at 20-22° C., and airflow at about 15 L/min, for 12 hours per day. Control mice were kept in a normal environment (RH>50%, no air flow, temperature of 20-22° C.) for the same duration.
A common artificial tear formulation, 1% carboxymethylcelllulose (CMC) dissolved in balanced salt solution (BSS) was used as the peptide vehicle. Peptide (100 μM, about 0.7 μg peptide in 10 μl eye drop used for treating one eye) or 1% CMC vehicle was topically administered to eyes three times a day. To test whether the present synthetic peptide could exert any therapeutic action on dry eyes, mice were housed at CEC for 14 days without topical treatment, and then were treated with the present peptide for 4 days.
Animals were anesthetized by an intraperitoneal injection of a mixture of zoletil (6 mg/kg) and xylazine (3 mg/kg). Corneal epithelial injury was determined by staining with topical fluorescein (Fluor-I-Strip, Ayerst Laboratories, Philadelphia, PA). Corneal fluorescein staining was examined with a slit-lamp biomicroscope under cobalt blue light and photographed with a digital camera. Dye staining of the cornea was scored in a blinded manner as follows: score 0 for no punctuate staining; score 1 when less than one third of the cornea was stained; score 2 when two thirds or less was stained; and score 3 when more than two thirds was stained (Horwath-Winter J 2013).
Briefly, mice were housed at controlled environment chamber (CEC) for 14 days (set as Day 0) to induce corneal surface disruption. Corneal fluorescein staining was used to estimate the corneal surface injury and the animal with a staining score of 2 (after mice placed at CEC for 14 days) was subjected to peptide treatment. The 6-mer variant peptide formulation for the treatment of DED was described in Methods. […]

Substance	STAT3 phosphorylation (immunoblot) (STAT3)	protective effect on Neuro-2a cells (neuroprotective activity), in words (Neuro-2a cells)	survivin mRNA induction compared to solvent control (survivin mRNA) [fold]	Number of TUNEL-positive cells in retina [1]	I/R-induced retinal cell apoptosis (TUNEL staining), in words [1]	mRNA expression of TNF-α, in words (TNF-α mRNA)	mRNA expression of IL-1β, in words (IL-1β mRNA)	survivin mRNA induction, in words (survivin mRNA)	therapeutic effect on corneal fluorescein staining, in words [2]
NH2-(D-Ser)-Leu-Gly-Ala-Glu-COOH (SLGAE; HELM PEPTIDE1{[dS].L.G.A.E}$$$$V2.0; SMILES CC(C)C[C@H](NC(=O)[C@H](N)CO)C(=O)NCC(=O)N[C@@H](C)C(=O)N[C@@H](CCC(=O)O)C(=O)O) [5-mer dS]	possessed no such effect	lacks any significant neuroprotective activity	–	–	–	–	–	–	–
NH2-Ala-Leu-Gly-Ala-Glu-Gln-COOH (ALGAEQ; not fully specified (N-terminus, C-terminus); printed as NH2-Ala-Leu-Gly-Ala-Glu-Gln-COOH) [6-mer Sa]	–	–	1.7	12.6 ± 1.1 /200 μm	reduced the retinal cell apoptosis induced by I/R	apparently repressed the mRNA expression of TNF-α and IL-1β	apparently repressed the mRNA expression of TNF-α and IL-1β	–	–
NH2-Ser-Leu-Gly-(D-Ala)-Glu-Gln-COOH (SLGAEQ; HELM PEPTIDE1{S.L.G.[dA].E.Q}$$$$V2.0; SMILES CC(C)C[C@H](NC(=O)[C@@H](N)CO)C(=O)NCC(=O)N[C@H](C)C(=O)N[C@@H](CCC(=O)O)C(=O)N[C@@H](CCC(N)=O)C(=O)O) [6-mer dA]	–	–	–	–	–	–	–	hamper the survivin gene induction activity significantly	had no therapeutic effect
NH2-Ser-Leu-Val-Ala-Glu-Gln-COOH (SLVAEQ; not fully specified (N-terminus, C-terminus); printed as NH2-Ser-Leu-Val-Ala-Glu-Gln-COOH) [6-mer Gv]	–	–	2.3	10.4 ± 1.4 /200 μm	reduced the retinal cell apoptosis induced by I/R	apparently repressed the mRNA expression of TNF-α and IL-1β	apparently repressed the mRNA expression of TNF-α and IL-1β	–	–
NH2-The-Leu-Gly-Ala-Glu-Gln-COOH (TLGAEQ; not fully specified (N-terminus, C-terminus); printed as NH2-The-Leu-Gly-Ala-Glu-Gln-COOH) [6-mer St]	–	–	–	21.8 ± 1.8 /200 μm	had no such effect	–	–	severely impaired the survivin mRNA induction	had no therapeutic effect
